Measured values published in the NIST ThermoML archive (doi:10.1016/j.jct.2012.07.018).

Columns and labels:
[1] = molar heat capacity at constant pressure; settings: Liquid, Flow calorimetry
[2] = molar heat capacity at constant pressure; xn = mol fraction of the nth substance listed; settings: 313.15 K, Liquid, Flow calorimetry

C1CCCCC1 [cyclohexane]
molar heat capacity at constant pressure [J/K/mol], [1]
Settings | 100 kPa | 5000 kPa | 10000 kPa | 15000 kPa | 20000 kPa
293.15 K | 154.1 | 152 | 151.1 | 149.9 | 148.7
313.15 K | 162.7 | 160.7 | 158.8 | 157.3 | 155.9
333.15 K | 171 | 169.1 | 166.8 | 164.9 | 163.4

C1CCCCC1 [cyclohexane] + C=CCCCC
[2], x1 = 1
Settings | molar heat capacity at constant pressure [J/K/mol]
100 kPa | 162.7
5000 kPa | 160.7
10000 kPa | 158.8
15000 kPa | 157.3
20000 kPa | 155.9

C1CCCCC1 [cyclohexane] + CCO
molar heat capacity at constant pressure [J/K/mol], [2]
Settings | x1 = 0.1 | x1 = 0.1999 | x1 = 0.2999 | x1 = 0.4 | x1 = 0.5002 | x1 = 0.6 | x1 = 0.7002 | x1 = 0.8 | x1 = 0.8999 | x1 = 1
100 kPa | 127.8 | 134.2 | 140.2 | 146.9 | 152.7 | 158.2 | 163.3 | 167.6 | 169.9 | 162.7
5000 kPa | 126.5 | 132.9 | 138.8 | 145.2 | 151 | 155.9 | 161 | 165.2 | 167.3 | 160.7
10000 kPa | 125 | 131 | 137.1 | 143.1 | 149 | 154 | 159 | 163.1 | 165.5 | 158.8
15000 kPa | 123.7 | 130.2 | 135.7 | 141.3 | 147 | 152.9 | 157.6 | 161.3 | 163.3 | 157.3
20000 kPa | 122.8 | 129.5 | 134.9 | 140.7 | 146.6 | 149 | 156.3 | 160.5 | 162.5 | 155.9

CCO [ethanol]
[1], 313.15 K
Settings | molar heat capacity at constant pressure [J/K/mol]
100 kPa | 119.2
5000 kPa | 118
10000 kPa | 116.8
15000 kPa | 115.5
20000 kPa | 114.9

CCO [ethanol] + C1CCCCC1
[2], x2 = 0
Settings | molar heat capacity at constant pressure [J/K/mol]
100 kPa | 119.2
5000 kPa | 118
10000 kPa | 116.8
15000 kPa | 115.5
20000 kPa | 114.9

CCO [ethanol] + C=CCCCC
[2], x2 = 0
Settings | molar heat capacity at constant pressure [J/K/mol]
100 kPa | 119.2
5000 kPa | 118
10000 kPa | 116.8
15000 kPa | 115.5
20000 kPa | 114.9

C=CCCCC [hex-1-ene]
molar heat capacity at constant pressure [J/K/mol], [1]
Settings | 100 kPa | 5000 kPa | 10000 kPa | 15000 kPa | 20000 kPa
273.15 K | 177.2 | 170.8 | 168.3 | 166.3 | 165.3
293.15 K | 184.8 | 178.6 | 175.1 | 172.6 | 172.1
313.15 K | 190.7 | 186.6 | 182.9 | 180.4 | 178.2

C=CCCCC [hex-1-ene] + C1CCCCC1
molar heat capacity at constant pressure [J/K/mol], [2]
Settings | x2 = 0 | x2 = 0.1 | x2 = 0.2 | x2 = 0.2999 | x2 = 0.4001 | x2 = 0.5 | x2 = 0.6001 | x2 = 0.7 | x2 = 0.8 | x2 = 0.9
100 kPa | 190.7 | 187.6 | 184.3 | 181.3 | 178 | 175.2 | 172.5 | 169.7 | 167.2 | 165.1
5000 kPa | 186.6 | 181.3 | 180.5 | 176.8 | 174.2 | 171.6 | 169.6 | 167.3 | 163.8 | 162.2
10000 kPa | 182.9 | 179.7 | 176.9 | 173.9 | 172.2 | 169.1 | 167 | 164.9 | 162.3 | 160
15000 kPa | 180.4 | 177.2 | 174.8 | 171.7 | 169.9 | 167.6 | 165.4 | 163.3 | 160.2 | 158.1
20000 kPa | 178.2 | 175.4 | 173.5 | 170.8 | 168.6 | 166.2 | 163.9 | 162.1 | 159.6 | 157.9

C=CCCCC [hex-1-ene] + CCO
molar heat capacity at constant pressure [J/K/mol], [2]
Settings | x1 = 0.0999 | x1 = 0.2 | x1 = 0.3 | x1 = 0.3998 | x1 = 0.4998 | x1 = 0.6 | x1 = 0.7001 | x1 = 0.8003 | x1 = 0.9003 | x1 = 1
100 kPa | 130.7 | 142 | 152 | 161.5 | 171.8 | – | 186.4 | 192.3 | 197 | 190.7
5000 kPa | 129 | 139.8 | 149.7 | 158.9 | 167.9 | 175.4 | 182.2 | 188.7 | 191.2 | 186.6
10000 kPa | 127.3 | 138 | 147.2 | 156.2 | 165.1 | 172.6 | 179 | 184.7 | 188.5 | 182.9
15000 kPa | 126 | 136.6 | 145.7 | 153.7 | 163.1 | 170.2 | 176.3 | 181.6 | 185.1 | 180.4
20000 kPa | 125 | 135.4 | 144.3 | 152.9 | 161.4 | 168.4 | 174.7 | 178.5 | 183.4 | 178.2
